{"source": "PubChem BioAssay AID1259409", "about": "(Chemical Carcinogenesis Research Information System (CCRIS), 2018)", "origin": "cited, not measured here", "tested_on": "rodent chemically induced tumor inhibition, incidence and multiplicity", "assay": "CCRIS tumor inhibitor studies", "settings": "Carcinogen: N-NITROBIS(2-OXOPROPYL)AMINE, 60559-38-4, Route [Inhibitor]: ORAL, Species: HAMSTER, Promoter: NONE USED", "note": "Several values for one entry are separate records, joined by “and”; a condition that tells them apart may be missing. Equal entries are not always repeated."}
{"smiles": "CC1=C(/C=C/C(C)=C/C=C/C(C)=C/C(=O)Nc2ccccc2)C(C)(C)CCC1", "values": [{"measurement": "tumour outcome (control, treated, inhibition, significance)", "setting": "Dose [Inhibitor]: 0.5 OR 1.0 MMOL/KG DIET DAILY STARTING 1 WK AFTER CARCINOGEN TREATMENT AND CONTINUING THROUGH THE END OF THE STUDY (STUD, Strain/Sex: SYRIAN/FEMALE, Target Tissue: Type of Lesion: PANCREAS: DUCTULAR ADENOMA, Dose [Carcinogen]: 10 MG/KG BW ONCE", "value": "5/23 (22%), 11/25 (44%), -100%, not significant"}, {"measurement": "tumour outcome (control, treated, inhibition, significance)", "setting": "Dose [Inhibitor]: 0.5 OR 1.0 MMOL/KG DIET DAILY STARTING 1 WK AFTER CARCINOGEN TREATMENT AND CONTINUING THROUGH THE END OF THE STUDY (STUD, Strain/Sex: SYRIAN/FEMALE, Target Tissue: Type of Lesion: PANCREAS: DUCTULAR ADENOMA, Dose [Carcinogen]: 40 MG/KG BW ONCE", "value": "12/20 (60%), 18/26 (69%), -15%, not significant"}, {"measurement": "tumour outcome (control, treated, inhibition, significance)", "setting": "Dose [Inhibitor]: 0.5 OR 1.0 MMOL/KG DIET DAILY STARTING 1 WK AFTER CARCINOGEN TREATMENT AND CONTINUING THROUGH THE END OF THE STUDY (STUD, Strain/Sex: SYRIAN/FEMALE, Target Tissue: Type of Lesion: PANCREAS: DUCTULAR CARCINOMA, Dose [Carcinogen]: 10 MG/KG BW ONCE", "value": "6/23 (27%), 2/25 (8%), 70%, not significant"}, {"measurement": "tumour outcome (control, treated, inhibition, significance)", "setting": "Dose [Inhibitor]: 0.5 OR 1.0 MMOL/KG DIET DAILY STARTING 1 WK AFTER CARCINOGEN TREATMENT AND CONTINUING THROUGH THE END OF THE STUDY (STUD, Strain/Sex: SYRIAN/MALE, Target Tissue: Type of Lesion: LIVER: BENIGN TUMOR, Dose [Carcinogen]: 40 MG/KG BW ONCE", "value": "4/20 (20%), 12/26 (46%), -130%, not significant and 5/24 (21%), 17/39 (44%), -110%, p<0.05"}, {"measurement": "tumour outcome (control, treated, inhibition, significance)", "setting": "Dose [Inhibitor]: 0.5 OR 1.0 MMOL/KG DIET DAILY STARTING 1 WK AFTER CARCINOGEN TREATMENT AND CONTINUING THROUGH THE END OF THE STUDY (STUD, Strain/Sex: SYRIAN/MALE, Target Tissue: Type of Lesion: PANCREAS: DUCTULAR ADENOMA, Dose [Carcinogen]: 10 MG/KG BW ONCE", "value": "3/22 (14%), 14/31 (45%), -221%, p<0.05"}, {"measurement": "tumour outcome (control, treated, inhibition, significance)", "setting": "Dose [Inhibitor]: 0.5 OR 1.0 MMOL/KG DIET DAILY STARTING 1 WK AFTER CARCINOGEN TREATMENT AND CONTINUING THROUGH THE END OF THE STUDY (STUD, Strain/Sex: SYRIAN/MALE, Target Tissue: Type of Lesion: PANCREAS: DUCTULAR ADENOMA, Dose [Carcinogen]: 40 MG/KG BW ONCE", "value": "8/24 (33%), 19/37 (51%), -55%, not significant"}, {"measurement": "tumour outcome (control, treated, inhibition, significance)", "setting": "Dose [Inhibitor]: 0.5 OR 1.0 MMOL/KG DIET DAILY STARTING 1 WK AFTER CARCINOGEN TREATMENT AND CONTINUING THROUGH THE END OF THE STUDY (STUD, Strain/Sex: SYRIAN/MALE, Target Tissue: Type of Lesion: PANCREAS: DUCTULAR CARCINOMA, Dose [Carcinogen]: 10 MG/KG BW ONCE", "value": "4/22 (18%), 3/31 (10%), 44%, not significant"}, {"measurement": "tumour outcome (control, treated, inhibition, significance)", "setting": "Dose [Inhibitor]: 0.5 OR 1.0 MMOL/KG DIET DAILY STARTING 1 WK AFTER CARCINOGEN TREATMENT AND CONTINUING THROUGH THE END OF THE STUDY (STUD, Strain/Sex: SYRIAN/MALE, Target Tissue: Type of Lesion: PANCREAS: DUCTULAR CARCINOMA, Dose [Carcinogen]: 40 MG/KG BW ONCE", "value": "5/24 (21%), 15/37 (40%), -90%, not significant"}, {"measurement": "tumour outcome (control, treated, inhibition, significance)", "setting": "Dose [Inhibitor]: 0.5 OR 1 MMOL/KG DIET DAILY STARTING 1 WK AFTER CARCINOGEN TREATMENT AND CONTINUING THROUGH THE END OF THE STUDY (STUDY, Strain/Sex: SYRIAN/FEMALE, Target Tissue: Type of Lesion: PANCREAS: DUCTULAR CARCINOMA, Dose [Carcinogen]: 40 MG/KG BW ONCE", "value": "6/20 (30%), 7/26 (27%), 10%, not significant"}, {"measurement": "tumour outcome (control, treated, inhibition, significance)", "setting": "Dose [Inhibitor]: 0.5 OR 1.0 MMOL/KG/D IN DIET STARTING 1 WK AFTER CARCINOGEN TREATMENT AND CONTINUING THROUGH THE END OF THE STUDY (STUDY, Strain/Sex: SYRIAN/FEMALE, Target Tissue: Type of Lesion: LIVER: BENIGN TUMOR, Dose [Carcinogen]: 40 MG/KG BW ONCE", "value": "4/20 (20%), 12/26 (46%), -130%, not significant"}, {"measurement": "tumour outcome (control, treated, inhibition, significance)", "setting": "Dose [Inhibitor]: 0.5 OR 1.0 MMOL/KG/D IN DIET STARTING 1 WK AFTER CARCINOGEN TREATMENT AND CONTINUING THROUGH THE END OF THE STUDY (STUDY, Strain/Sex: SYRIAN/FEMALE, Target Tissue: Type of Lesion: PANCREAS: DUCTULAR ADENOMA, Dose [Carcinogen]: 10 MG/KG BW ONCE", "value": "5/23 (22%), 11/25 (44%), -100%, not significant"}, {"measurement": "tumour outcome (control, treated, inhibition, significance)", "setting": "Dose [Inhibitor]: 0.5 OR 1.0 MMOL/KG/D IN DIET STARTING 1 WK AFTER CARCINOGEN TREATMENT AND CONTINUING THROUGH THE END OF THE STUDY (STUDY, Strain/Sex: SYRIAN/FEMALE, Target Tissue: Type of Lesion: PANCREAS: DUCTULAR ADENOMA, Dose [Carcinogen]: 40 MG/KG BW ONCE", "value": "12/20 (60%), 18/26 (69%), -15%, not significant"}, {"measurement": "tumour outcome (control, treated, inhibition, significance)", "setting": "Dose [Inhibitor]: 0.5 OR 1.0 MMOL/KG/D IN DIET STARTING 1 WK AFTER CARCINOGEN TREATMENT AND CONTINUING THROUGH THE END OF THE STUDY (STUDY, Strain/Sex: SYRIAN/FEMALE, Target Tissue: Type of Lesion: PANCREAS: DUCTULAR CARCINOMA, Dose [Carcinogen]: 10 MG/KG BW ONCE", "value": "6/23 (27%), 2/25 (8%), 70%, not significant"}, {"measurement": "tumour outcome (control, treated, inhibition, significance)", "setting": "Dose [Inhibitor]: 0.5 OR 1.0 MMOL/KG/D IN DIET STARTING 1 WK AFTER CARCINOGEN TREATMENT AND CONTINUING THROUGH THE END OF THE STUDY (STUDY, Strain/Sex: SYRIAN/FEMALE, Target Tissue: Type of Lesion: PANCREAS: DUCTULAR CARCINOMA, Dose [Carcinogen]: 40 MG/KG BW ONCE", "value": "6/20 (30%), 7/26 (27%), 10%, not significant"}, {"measurement": "tumour outcome (control, treated, inhibition, significance)", "setting": "Dose [Inhibitor]: 0.5 OR 1.0 MMOL/KG/D IN DIET STARTING 1 WK AFTER CARCINOGEN TREATMENT AND CONTINUING THROUGH THE END OF THE STUDY (STUDY, Strain/Sex: SYRIAN/MALE, Target Tissue: Type of Lesion: LIVER: BENIGN TUMOR, Dose [Carcinogen]: 40 MG/KG BW ONCE", "value": "5/24 (21%), 17/39 (44%), -110%, p<0.05"}, {"measurement": "tumour outcome (control, treated, inhibition, significance)", "setting": "Dose [Inhibitor]: 0.5 OR 1.0 MMOL/KG/D IN DIET STARTING 1 WK AFTER CARCINOGEN TREATMENT AND CONTINUING THROUGH THE END OF THE STUDY (STUDY, Strain/Sex: SYRIAN/MALE, Target Tissue: Type of Lesion: PANCREAS: DUCTULAR ADENOMA, Dose [Carcinogen]: 10 MG/KG BW ONCE", "value": "3/22 (14%), 14/31 (45%), -221%, p<0.05"}, {"measurement": "tumour outcome (control, treated, inhibition, significance)", "setting": "Dose [Inhibitor]: 0.5 OR 1.0 MMOL/KG/D IN DIET STARTING 1 WK AFTER CARCINOGEN TREATMENT AND CONTINUING THROUGH THE END OF THE STUDY (STUDY, Strain/Sex: SYRIAN/MALE, Target Tissue: Type of Lesion: PANCREAS: DUCTULAR ADENOMA, Dose [Carcinogen]: 40 MG/KG BW ONCE", "value": "8/24 (33%), 19/37 (51%), -55%, not significant"}, {"measurement": "tumour outcome (control, treated, inhibition, significance)", "setting": "Dose [Inhibitor]: 0.5 OR 1.0 MMOL/KG/D IN DIET STARTING 1 WK AFTER CARCINOGEN TREATMENT AND CONTINUING THROUGH THE END OF THE STUDY (STUDY, Strain/Sex: SYRIAN/MALE, Target Tissue: Type of Lesion: PANCREAS: DUCTULAR CARCINOMA, Dose [Carcinogen]: 10 MG/KG BW ONCE", "value": "4/22 (18%), 3/31 (10%), 44%, not significant"}, {"measurement": "tumour outcome (control, treated, inhibition, significance)", "setting": "Dose [Inhibitor]: 0.5 OR 1.0 MMOL/KG/D IN DIET STARTING 1 WK AFTER CARCINOGEN TREATMENT AND CONTINUING THROUGH THE END OF THE STUDY (STUDY, Strain/Sex: SYRIAN/MALE, Target Tissue: Type of Lesion: PANCREAS: DUCTULAR CARCINOMA, Dose [Carcinogen]: 40 MG/KG BW ONCE", "value": "5/24 (21%), 15/37 (40%), -90%, not significant"}]}
